Publication PMC10144058, “New Hybrid Scaffolds Based on 5-FU/Curcumin: Synthesis, Cytotoxic, Antiproliferative and Pro-Apoptotic Effect” (Pharmaceutics, 2023)
Read-outs that look alike come from different tables or passages of the source.

Columns and labels:
Bel-7402/5-FU = tested on: Bel-7402/5-FU; set-up: method as in PMID 31080076; conditions: cited from earlier work
Bel7402 = tested on: Bel7402; set-up: method as in PMID 31080076; conditions: cited from earlier work
SW620 cells [1] = experiment: Antiproliferative activity (SRB, 0-8 days); format: cell-based, human; conditions: for viability at 2.5 µM / viability at 40 µM: Homo sapiens, read-out: Cell Viability (%) ± SE; for viability at 2.5 µM: SW620, 2.5 µM; for viability at 40 µM: SW620, 40 µM
Method: For this experiment, the same colorimetric method (SRB) from the evaluation of cell viability was used, although with some modifications. Initially, 2500 cells per well were seeded in 96-well culture plates, and a 24 h adherence period was performed at 37 °C in a 5% CO2 atmosphere. […] For this assay, incubation periods of 0, 2, 4, 6, and 8 days were used, and the fixation, staining, and reading conditions were the same as those previously described for the cytotoxicity assay.

SW620 cells [2] = experiment: Cell death induction (Annexin-V/PI, flow cytometry); format: cell-based, human; conditions: SW620, treated with IC50, 48 h
Method: For this method, 250,000 cells/well were initially seeded in 6-well culture plates during a 24 h adherence period at 37 °C in a 5% CO2 atmosphere. […] After treatment, cells were obtained by mechanical disaggregation, resuspended in a solution with Annexin-V-FLUOS and PI, and incubated for 20 min in the dark before flow cytometry analysis.

SW620 cells [3] = experiment: Cell viability, sulforhodamine B (SRB) assay; format: cell-based, human
Method: (§1) SW480 (colon adenocarcinoma) and SW620 (derived metastatic) malignant cell lines, and the non-malignant lines HaCaT (human keratinocytes) and CHO-K1 (Chinese Hamster Ovary), were obtained from the European Collection of Authenticated Cell Cultures (ECACC, Porton Down, Salisbury, UK). The cells were maintained in Dulbecco’s Modified Eagle’s Medium (DMEM), supplemented with 10% equine serum previously inactivated at 56 °C, 1% penicillin/streptomycin, and 1% non-essential amino acids, and incubated at 37 °C in an atmosphere with 5% CO2. To carry out the experiments, the serum was diluted to 3% and additionally supplemented with […] insulin, […] transferrin, and 5 ng/mL selenium. Cells were used for experimentation when they reached 80–90% confluence, using a 1X trypsin enzymatic disintegration method. To avoid contamination by Mycoplasma spp., cell cultures were periodically analyzed by polymerase chain reaction (PCR).
(§2) Cell viability was evaluated with a sulforhodamine B (SRB) assay. This technique provides an index of protein contents in living and adherent cells, whose optical density can be related to cell concentration. Initially, 20,000 cells were seeded per well in 96-well culture plates. An initial adherence period of 24 h was performed at 37 °C, 5% CO2, and after this, the medium was replaced by another that contained the hybrid compounds in different concentrations. Then, the cells were left incubating for 24 and 48 h under the same conditions previously described. After the respective incubation times, the cells were fixed with trichloroacetic acid (50% v/v) for 1 h at 4 °C and stained with 0.4% (p/v) of SRB. Subsequently, washings with 1% acetic acid were carried out to eliminate possible nonspecific bindings, and after solubilization with 10 mM Tris-base, the absorbance was read at 492 nm in a microplate reader (Mindray MR-96A). All the experiments were carried out in triplicate.

SW480 cells [4] = experiment: Cell viability, sulforhodamine B (SRB) assay; format: cell-based; conditions: Homo sapiens
Method: as §1, §2

[5] = tested on: caspase 3, caspase 7, caspase 8 and p53 in SW620 cells; experiment: Apoptotic biomarkers (ELISA); format: cell-based, human; conditions: SW620, treated with IC50, 48 h, vs control
Method: To provide an approach to the possible molecular mechanisms through which the hybrid compounds induce an effect on the cell lines, different proteins related to the process of death by apoptosis were determined. For this method, 1,000,000 cells were initially seeded per Petri dish, with an adherence period of 24 h at 37 °C in a 5% CO2 atmosphere. […] Later, the consumed medium was discarded, and after the addition of the versene buffer, the cells were obtained by mechanical disaggregation. The cells were then lysed with a cell lysis buffer and centrifuged to obtain the supernatant, which was used to determine the biomarkers of interest by enzyme-linked immunosorbent assays. These ELISA kits were provided by Elabscience Biotechnology Co., Houston, TX, USA [26].

CHO-K1 cells = experiment: Cell viability, sulforhodamine B (SRB) assay, non-malignant cells; format: cell-based, Chinese Hamster; conditions: Cricetulus griseus
Method: as §1, §2

HaCaT cells = experiment: as above; format: cell-based; conditions: Homo sapiens
Method: as §1, §2

SW620 cells [6] = experiment: Mitochondrial membrane potential (DiOC6/PI, flow cytometry); format: cell-based, human; conditions: SW620, treated with IC50, 48 h
Method: The fluorescent dyes PI and DIOC6 (3,3’-dihexyloxacarbocyanine iodide) were used to observe the depolarization of the mitochondrial membrane as well as possible cell membrane damage. For this method, 250,000 cells/well were initially seeded in 6-well culture plates during a 24 h adherence period at 37 °C in a 5% CO2 atmosphere. […] After treatment, cells were obtained by mechanical disaggregation, stained with DiOC6 and PI, and incubated at room temperature for 30 min in the dark. Ten thousand events were analyzed by flow cytometry with excitation at 488 nm and emission detection with green (530/15 nm) and red (610/20 nm) filters.

SW620 cells [7] = experiment: Cell cycle analysis (PI, flow cytometry); format: cell-based, human; conditions: SW620, treated with IC50 value, 48 h
Method: The method used for the recognition of cell cycle phases (G0/G1, S, G2/M) was based on staining with a fluorescent dye (propidium iodide—PI), as a direct relationship between fluorescence intensity and DNA content can be established. For this method, 250,000 cells/well were initially seeded in 6-well culture plates with an adherence period of 24 h at 37 °C in a 5% CO2 atmosphere. […] After treatment, cells were obtained by mechanical disaggregation, and the cell pellet was centrifuged and washed with a versene buffer. The cell pellet was fixed with 1.8 mL of cold 70% ethanol and kept at 4 °C overnight. Subsequently, two washes with a versene buffer were performed, and the pellet was resuspended in 300 µL of PBS containing 0.25 mg/mL of RNAsa and 0.1 mg/mL of PI. After a 30 min period of dark incubation, the fluorescence of 10,000 cells was analyzed using a FACS Canto II flow cytometer. The PI signal was analyzed with excitation at 488 nm using a sapphire laser, and fluorescence was detected at 610 nm. The data analysis was performed with FlowJo 10.8.1 software.

metastatic SW620 = tested on: metastatic SW620; set-up: method as in PMID 33652694; conditions: cited from earlier work
[8] = tested on: HT29 colorectal adenocarcinoma cells; set-up: method as in PMID 33652694; conditions: cited from earlier work
normal 3T3 cells = tested on: normal 3T3 cells; set-up: method as in PMID 31080076; conditions: normal 3T3 cells (mouse embryonic fibroblast cell line); cited from earlier work
SW620 cells [9] = tested on: SW620 cells; set-up: method as in PMID 36297411; conditions: cited from earlier work
SW480 cells [10] = tested on: SW480 cells; set-up: method as in PMID 36297411; conditions: cited from earlier work
[11] = tested on: SW480 human colon adenocarcinoma cells; set-up: method as in PMID 34062841; conditions: cited from earlier work
SW620 cell line = tested on: SW620 cell line; set-up: method as in PMID 34062841; conditions: cited from earlier work
SMMC-7721 = tested on: SMMC-7721; set-up: method as in PMID 30025345; conditions: cited from earlier work
MGC-803 = tested on: MGC-803; set-up: method as in PMID 30025345; conditions: cited from earlier work
SGC-7901 = tested on: SGC-7901; set-up: method as in PMID 30025345; conditions: cited from earlier work
U87 = tested on: U87; set-up: method as in PMID 30025345; conditions: cited from earlier work
U266 cells = tested on: U266 cells; set-up: method as in PMID 23784627; conditions: cited from earlier work
MM1S cells = tested on: MM1S cells; set-up: method as in PMID 23784627; conditions: cited from earlier work
RPMI8226 cells = tested on: RPMI8226 cells; set-up: method as in PMID 23784627; conditions: cited from earlier work
HCT-116 cell line = tested on: HCT-116 cell line; set-up: method as in PMID 27060762; conditions: cited from earlier work
THP-1 cell line = tested on: THP-1 cell line; set-up: method as in PMID 27060762; conditions: cited from earlier work
COLO-205 cell line = tested on: COLO-205 cell line; set-up: method as in PMID 27060762; conditions: cited from earlier work
tubulin polymerization = tested on: tubulin polymerization; set-up: method as in PMID 27060762; conditions: in THP-1 tumor cells; read-out: IC50, inhibition of tubulin polymerization; cited from earlier work
[12] = SW-620, 48 h, 2 days after plating
[13] = SW-620, 96 h, 4 days after plating
[14] = SW-620, 144 h, 6 days after plating
[15] = SW-620, 192 h, 8 days after plating

For COc1cccc2c1C(=O)c1c(O)c3c(c(O)c1C2=O)C[C@@](O)(C(=O)CO)C[C@@H]3O[C@H]1C[C@H](N)[C@H](O)[C@H](C)O1 [Adriamycin], the IC50 (Bel-7402/5-FU) is given as 1.14 µM and the IC50 (Bel7402) is given as 0.73 µM.
Compound COc1cc(/C=C/C(=O)c2ccc(OCCCCCCn3cc(Cn4cc(F)c(=O)[nH]c4=O)nn3)cc2)ccc1O [Compound 6e, (E)-5-fluoro-1-((1-(6-(4-(3-(4-hydroxy-3-methoxyphenyl)acryloyl)phenoxy)hexyl)-1H-1,2,3-triazol-4-yl)methyl)pyrimidine-2,4(1H,3H)-dione] has a viability at 2.5 µM (SW620 cells [1]; [12]) of 95.6 ± 4.08%, a viability at 40 µM (SW620 cells [1]; [12]) of 8.77 ± 1.85% and a viability at 2.5 µM (SW620 cells [1]; [13]) of 60.65 ± 0.46%. For the same compound, the viability at 40 µM (SW620 cells [1]; [13]) was 0%, the viability at 2.5 µM (SW620 cells [1]; [14]) was 56.5 ± 2.09% and the viability at 40 µM (SW620 cells [1]; [14]) was 0%. The viability at 2.5 µM (SW620 cells [1]; [15]) was 48.9 ± 3.46%, the viability at 40 µM (SW620 cells [1]; [15]) was 0% and the “inhibition percentages (decrease in cell viability)” value (SW620 cells [1]; SW620, from 20 µM, day 2) was “higher than 30%”. The “Annexin V/PI quadrant Q4 (viable cells)” value (SW620 cells [2]) was 84.7%, the IC50 (SW620 cells [3]; 48 h) was 14.5 ± 1.31 µM and the IC50 (SW620 cells [3]; Homo sapiens, SW-620, 24 h, 24 h) was over 100 µM. For the same compound, the IC50 (SW620 cells [3]; Homo sapiens, SW-620, 48 h, 48 h) was 19.5 µM, the IC50 (SW480 cells [4]; SW480, 24 h) was 38.8 ± 5.46 µM and the IC50 (SW480 cells [4]; SW480, 48 h) was 18.2 ± 0.88 µM. The “levels of executioner caspases 3 and 7” value [5] was “Significantly increased levels”, the IC50 (CHO-K1 cells; CHO-K1, 24 h) was 33.8 ± 2.2 µM and the IC50 (CHO-K1 cells; CHO-K1, 48 h) was 34.5 ± 1.37 µM. The IC50 (HaCaT cells; 24 h) was 76.9 ± 5.87 µM, the IC50 (HaCaT cells; 48 h) was 19.7 ± 1.99 µM and the “Dioc6 High population (live cells with high membrane polarization)” value (SW620 cells [6]) was 96%. For the same compound, the “Dioc6 Low population (cells that lose membrane polarization)” value (SW620 cells [6]) was 0%, the “PI+ population (membrane damage or dead cells)” value (SW620 cells [6]) was 4.05% and the “changes in the mitochondrial membrane potential” value (SW620 cells [6]) was “do not induce significant changes”. For the same compound, the “Cell cycle distribution, G0/G1” value (SW620 cells [7]) was 20.6%, the “Cell cycle distribution, G2/M” value (SW620 cells [7]) was 8.8% and the “Cell cycle distribution, S Phase” value (SW620 cells [7]) was 24.5%.
For COc1cccc(/C=C2\CCC/C(=C\c3cccc(OC)c3OC)C2=O)c1OC [DMCH, (2E,6E)-2,6-Bis(2,3-Dimethoxybenzylidine) Cyclohexanone], the “increase of the sub-G0/G1 population in the cell cycle” value (metastatic SW620) is given as “more than 70%” and the “increase of the sub-G0/G1 population in the cell cycle” value [8] is given as “more than 70%”.
In the case of C=C1C(=O)OC2C1CCC(COC(=O)Cn1cc(F)c(=O)n(Cc3ccc(C(F)(F)F)cc3)c1=O)=CCCC1(C)OC21 (centres unmarked) [D], the IC50 (normal 3T3 cells) is listed as 5.2 µM.
For O=c1[nH]c(=O)n(Cc2cn(CCOc3cc(O)c4c(=O)c(-c5ccc(O)cc5)coc4c3)nn2)cc1F [E], the IC50 (SW620 cells [9]) is listed as 50.6 ± 1.33 µM and the IC50 (SW480 cells [10]) is listed as 62.7 ± 7.26 µM.
In the case of COc1ccc(/C=C/c2ccc(C(=O)/C=C/c3ccc(O)c(OC)c3)cc2)c(OC)c1 [G], the IC50 [11] is given as 29.2 µM and the IC50 (SW620 cell line) is given as 20.4 µM.
In the case of COc1cc(OC)c2c(=O)c(OCCCOc3ccccc3/C=C/C(=O)/C=C/c3ccccn3)c(-c3cc(OC)c(OC)c(OC)c3)oc2c1 [H], the IC50 (SMMC-7721) is given as 3.18 µM, the IC50 (MGC-803) is given as 0.56 µM and the IC50 (SGC-7901) is given as 1.08 µM. The IC50 (U87) was 3.93 µM.
For COc1cc(/C=C/C(=O)C(=Cc2cccc3c2C(=O)N(C2CCC(=O)NC2=O)C3=O)C(=O)/C=C/c2ccc(O)c(OC)c2)ccc1O (centres unmarked) [I], the IC50 (U266 cells) is given as 3.96 µM, the IC50 (MM1S cells) is given as 6.44 µM and the IC50 (RPMI8226 cells) is given as 4.55 µM.
For COc1cc(/C=C/C(=O)/C=C/c2cc(OC)c(OC)c(OC)c2)ccc1OCc1cn(CCOc2cc(=O)oc3ccccc23)nn1 [J], the IC50 (HCT-116 cell line) is given as 2.21 µM, the IC50 (THP-1 cell line) is given as 0.82 µM and the IC50 (COLO-205 cell line) is given as 4.68 µM. The IC50 (tubulin polymerization) was 0.82 µM.
